Assay results from patent publication US20200113181A1, “HERBICIDAL COMPOUNDS” (SYNGENTA PARTICIPATIONS AG, priority 2016, published 2020).

How the values were obtained:
Type in all cases: in vivo
[1] = system: Alopecurus myosuroides (ALOMY); assay: Glasshouse herbicide test, pre- and post-emergence, Alopecurus myosuroides; conditions: 250 g/h, evaluated after 13 days; for ALOMY PRE, percentage damage caused to the plant (five point scale): pre-emergence; for ALOMY POST, percentage damage caused to the plant (five point scale): post-emergence
Protocol: (§1) Seeds of a variety of test species are sown in standard soil in pots (Lolium perenne (LOLPE), Setaria faberi (SETFA), Alopecurus myosuroides (ALOMY), Echinochloa crus-galli (ECHCG), Avena fatua (AVEFA)). After cultivation for one day (pre-emergence) or after 8 days cultivation (post-emergence) under controlled conditions in a glasshouse (at 24/16° C., day/night; 14 hours light; 65% humidity), the plants are sprayed with an aqueous spray solution derived from the formulation of the technical active ingredient in acetone/water (50:50) solution containing 0.5% Tween 20 (polyoxyethelyene sorbitan monolaurate, CAS RN 9005-64-5). Compounds are applied at […]. The test plants are then grown in a glasshouse under controlled conditions in a glasshouse (at 24/16° C., day/night; 14 hours light; 65% humidity) and watered twice daily. After 13 days for pre and post-emergence, the test is evaluated for the percentage damage caused to the plant. The biological activities are shown in the following table on a five point scale (5=80-100%; 4=60-79%; 3=40-59%; 2=20-39%; 1=0-19%).

[2] = system: Avena fatua (AVEFA); assay: Glasshouse herbicide test, pre- and post-emergence, Avena fatua; conditions: 250 g/h, evaluated after 13 days; for AVEFA POST, percentage damage caused to the plant (five point scale): post-emergence; for AVEFA PRE, percentage damage caused to the plant (five point scale): pre-emergence
Protocol: as §1

[3] = system: Echinochloa crus-galli (ECHCG); assay: Glasshouse herbicide test, pre- and post-emergence, Echinochloa crus-galli; conditions: 250 g/h, evaluated after 13 days; for ECHCG PRE, percentage damage caused to the plant (five point scale): pre-emergence; for ECHCG POST, percentage damage caused to the plant (five point scale): post-emergence
Protocol: as §1

[4] = system: Setaria faberi (SETFA); assay: Glasshouse herbicide test, pre- and post-emergence, Setaria faberi; conditions: 250 g/h, evaluated after 13 days; for SETFA PRE, percentage damage caused to the plant (five point scale): pre-emergence; for SETFA POST, percentage damage caused to the plant (five point scale): post-emergence
Protocol: as §1

[5] = system: Lolium perenne (LOLPE); assay: Glasshouse herbicide test, pre- and post-emergence, Lolium perenne; conditions: 250 g/h, evaluated after 13 days; for LOLPE PRE, percentage damage caused to the plant (five point scale): pre-emergence; for LOLPE POST, percentage damage caused to the plant (five point scale): post-emergence
Protocol: as §1

CC#Cc1ccc(C2C(=O)[C@@H]3[C@@H]4O[C@@H](C[C@H]4CC)[C@@H]3C2=O)c(OC)c1 (stereo partly drawn) [Compound 1.24]
5 (5=80-100%): ALOMY PRE, percentage damage caused to the plant (five point scale) [1] | AVEFA POST, percentage damage caused to the plant (five point scale) [2] | ECHCG PRE, percentage damage caused to the plant (five point scale) [3] | SETFA PRE, percentage damage caused to the plant (five point scale) [4] | LOLPE PRE, percentage damage caused to the plant (five point scale) [5]

CC#Cc1ccc(C2=C(OC(C)=O)[C@@H]3[C@H](C2=O)[C@@H]2O[C@H]3C[C@@H]2COC)c(OC)c1 (racemic) [Compound 1.29]
5 (5=80-100%): ALOMY POST, percentage damage caused to the plant (five point scale) [1] | ALOMY PRE, percentage damage caused to the plant (five point scale) [1] | AVEFA POST, percentage damage caused to the plant (five point scale) [2] | AVEFA PRE, percentage damage caused to the plant (five point scale) [2] | ECHCG POST, percentage damage caused to the plant (five point scale) [3] | ECHCG PRE, percentage damage caused to the plant (five point scale) [3] | SETFA POST, percentage damage caused to the plant (five point scale) [4] | SETFA PRE, percentage damage caused to the plant (five point scale) [4] | LOLPE POST, percentage damage caused to the plant (five point scale) [5] | LOLPE PRE, percentage damage caused to the plant (five point scale) [5]

CC#Cc1ccc(C2=C(OC(=O)C(C)C)[C@@H]3[C@H](C2=O)[C@@H]2O[C@H]3C[C@@H]2COC)c(OC)c1 (racemic) [Compound 1.27]
5 (5=80-100%): ALOMY POST, percentage damage caused to the plant (five point scale) [1] | ALOMY PRE, percentage damage caused to the plant (five point scale) [1] | AVEFA POST, percentage damage caused to the plant (five point scale) [2] | AVEFA PRE, percentage damage caused to the plant (five point scale) [2] | ECHCG POST, percentage damage caused to the plant (five point scale) [3] | ECHCG PRE, percentage damage caused to the plant (five point scale) [3] | SETFA POST, percentage damage caused to the plant (five point scale) [4] | SETFA PRE, percentage damage caused to the plant (five point scale) [4] | LOLPE POST, percentage damage caused to the plant (five point scale) [5] | LOLPE PRE, percentage damage caused to the plant (five point scale) [5]

CC#Cc1ccc(C2C(=O)[C@@H]3[C@@H]4O[C@@H](C[C@@H]4C)[C@@H]3C2=O)c(OC)c1 (mixture of isomers) [Compound 1.3]
5 (5=80-100%): ALOMY POST, percentage damage caused to the plant (five point scale) [1] | ALOMY PRE, percentage damage caused to the plant (five point scale) [1] | AVEFA POST, percentage damage caused to the plant (five point scale) [2] | AVEFA PRE, percentage damage caused to the plant (five point scale) [2] | ECHCG POST, percentage damage caused to the plant (five point scale) [3] | ECHCG PRE, percentage damage caused to the plant (five point scale) [3] | SETFA POST, percentage damage caused to the plant (five point scale) [4] | SETFA PRE, percentage damage caused to the plant (five point scale) [4] | LOLPE POST, percentage damage caused to the plant (five point scale) [5] | LOLPE PRE, percentage damage caused to the plant (five point scale) [5]

CC#Cc1ccc(C2C(=O)[C@H]3[C@@H]4CC[C@@](C)(O4)[C@H]3C2=O)c(OC)c1 (mixture of isomers) [Compound 1.5]
5 (5=80-100%): ALOMY POST, percentage damage caused to the plant (five point scale) [1] | ALOMY PRE, percentage damage caused to the plant (five point scale) [1] | AVEFA POST, percentage damage caused to the plant (five point scale) [2] | AVEFA PRE, percentage damage caused to the plant (five point scale) [2] | ECHCG POST, percentage damage caused to the plant (five point scale) [3] | ECHCG PRE, percentage damage caused to the plant (five point scale) [3] | SETFA POST, percentage damage caused to the plant (five point scale) [4] | SETFA PRE, percentage damage caused to the plant (five point scale) [4] | LOLPE POST, percentage damage caused to the plant (five point scale) [5] | LOLPE PRE, percentage damage caused to the plant (five point scale) [5]
